Measured values as given in article PMC9585897 (Peptides, 2022).
Entries after “also recorded” stand apart in the source; their conditions may differ. Non-standard residues stand in square brackets, D forms with d. Residues, ends and D or L forms follow the SMILES beside them. Ahx = NCCCCCC(=O)O

Tests used:
[1] = biological target: SARS-CoV-2 Spike-ACE2 interaction (Severe acute respiratory syndrome coronavirus 2, UniProt P0DTC2); assay: ELISA, SARS-CoV-2 Spike-ACE2 Interaction Inhibitor Screening Assay Kit; assay type: biochemical
[2] = test system: rCoV2-RBD (His-Spike S1 Protein, 13–685 aa); assay type: binding, SARS-CoV-2

| Compound | IC50 [1] [nM] | Competition with ACE2 for binding to CoV2-RBD (in words) ([1]; approximately 13.48 μM of ACE2, ELISA) | Inhibition of the Spike-ACE2 interaction (in words) ([1]; competitive ELISA, BP19 1 to 128 μM in triplicates) | Binding of CoV2-RBD, sliding window array (in words) [2] |
| --- | --- | --- | --- | --- |
| CC[C@H](C)[C@H](NC(=O)[C@H](Cc1ccccc1)NC(=O)[C@H](CCCCN)NC(=O)[C@H](CC(=O)O)NC(=O)[C@H](CC(C)C)NC(=O)[C@H](Cc1ccccc1)NC(=O)[C@@H](NC(=O)[C@H](CCCCN)NC(=O)[C@H](C)NC(=O)[C@H](CCC(N)=O)NC(=O)[C@H](CCC(=O)O)NC(=O)[C@H](CCC(=O)O)NC(=O)[C@@H](NC(=O)[C@@H](NC(=O)[C@H](CO)NC(=O)[C@H](CCC(N)=O)NC(=O)[C@H](C)NC(=O)[C@H](C)NC(=O)[C@@H](NC(=O)[C@@H](NC(=O)[C@H](C)NC(=O)[C@@H](NC(=O)[C@H](CC(C)C)NC(=O)[C@@H](N)CO)C(C)C)C(C)C)[C@@H](C)O)[C@@H](C)O)[C@@H](C)CC)[C@@H](C)O)C(=O)NCCCCCC(=O)N[C@@H](Cc1c[nH]c2ccccc12)C(N)=O [BP19] (H-SLVAVTAAQSTIEEQAKTFLDKFI[Ahx]W-NH2; N-terminus assumed) | 2080 ± 380 | able to outcompete the natural ACE2 at lower than equimolar concentrations; also recorded: outcompeted 13.48 μM of ACE2 for binding to the CoV2-RBD | dose-responsive; also recorded: inhibitory of the Spike-ACE2 interaction in vitro | – |
| SLVAVTAAQSTIEEQAKTFLDKFN [9 ^N] | – | – | – | bound the CoV2-RBD the strongest; also recorded: bound the CoV2-RBD with the greatest intensity |
